Data: US20040186066A1, “Method of treatment with nelfinavir” (AGOURON PHARMACEUTICALS, INC., priority 2003, published 2004)
Marks after values point to notes of the source that are not given here.

Columns and labels:
[1] = Example 1: phase I crossover food-effect study, single-dose pharmacokinetics of nelfinavir 250 mg tablets (total kilocalories and fat); type: in vivo, human (normal healthy volunteers); settings: for bioavailability of M8 higher relative to fasting, based on AUC(0-∞): M8 after 1250 mg nelfinavir
Protocol: A phase I, randomized, open-label crossover study to evaluate the impact of total kilocalories and fat content on single-dose pharmacokinetic parameters of the nelfinavir 250 mg tablet formulation in normal healthy volunteers was performed. Healthy volunteers entered the study and received the following treatment in random order at least 1 week apart: 1) 5×250 mg nelfinavir tablets, fasted 2) 5×250 mg nelfinavir tablets (breakfast meal 1, 125 Kcal/20% fat=low cal/low fat) 3) 5×250 mg nelfinavir tablets (breakfast meal 2, 500 Kcal/20% fat=medium cal/low fat) 4) 5×250 mg nelfinavir tablets (breakfast meal 3, 1000 Kcal/50% fat=high cal/high fat). Plasma concentrations of nelfinavir and its active hydroxy-t-butylamide metabolite (M8) were measured by validated high performance liquid chromatography (HPLC) methods. Pharmacokinetic parameters were determined from plasma concentration-time data using standard methods. Nelfinavir was administered as five 250-mg tablets with 240 mL of water. All subjects received a standardized snack the evening they were admitted to the in-patient facility. For the fasting evaluation, subjects were required to complete an overnight fast of at least 10 hours prior to dosing in the morning. For the fed pharmacokinetic evaluations, subjects were required to complete an overnight fast of at least 10 hours, prior to receiving the protocol-specific standardized breakfast meal (that is, Meal 1, Meal 2, or Meal 3). Subjects were given 30 minutes to complete their standardized breakfast meal. Dosing was performed in the morning, immediately following the subject's completion of the standardized breakfast meal and after the subject's pre-dose pharmacokinetic specimen had been collected. Subjects could not ingest water 1 hour prior to or 1 hour after dosing. A standardized lunch was given at least 4 hours after the morning dose and a standardized dinner was given at least 10 hours after the morning dose. For pharmacokinetic sampling, blood samples, 5 mL each, were collected into heparinized vacuum tubes (green top tubes) via an indwelling catheter or direct venipuncture. The actual time of each collection was recorded on the source document. The timing of each sample collection was as follows: predose and at 0.5, 1, 2, 3, 4, 6, 8, and 12 hours postdose on Days 1, 8,15, and 22. Pharmacokinetic parameter values were calculated using WinNonlin Pro Version 2.1. Individual nelfinavir plasma concentrations were used to predict steady-state plasma concentrations during BID administration with meals of various Kcal content. WinNonlin Pro Version 3.2 noncompartmental superposition was used for this simulation. Predicted steady-state Cmax and Cmin values were compared.

[2] = Example 2: phase 1 crossover 3×3 study, fixed kilocalorie meal at 20% and 50% fat, single-dose pharmacokinetics of nelfinavir 250 mg tablets; type: in vivo, human (normal, healthy volunteers)
Protocol: A study was conducted as a phase 1, randomized, open-label, crossover 3×3 study, designed to evaluate the impact of a fixed kilocalorie meal at 20% and 50% fat content on single-dose pharmacokinetic parameters of the nelfinavir 250 mg tablet formulation in normal, healthy volunteers. Subjects were dosed with 1250 mg of nelfinavir 3 times at one-week intervals and 24-hour PK profiles were collected following each of the doses. Each subject was assigned three meals with different fat contents prior to dosing (fasting, 500kcal with 20% fat, 500 kcal with 50% fat) using a Latin square design. Twenty-four subjects entered the study and twenty-two subjects completed it. Each subject received the following treatment in random order on Days 1, 8 and 15: 5×250 mg nelfinavir tablets with fasting; 5×250 mg nelfinavir tablets, with a meal comprising 500Kcal/20% fat; and 5×250 mg nelfinavir tablets with a meal having 500 Kcal/50% fat. The moderate calorie/low fat meal consisted of 500 Kcal with 20% fat (11.3 grams of fat). The moderate calorie/high fat meal consisted of 500 Kcal with 50% fat (27.8 grams of fat). Subjects were administered nelfinavir 1250-mg (five 250-mg tablets) on the morning of the pharmacokinetic evaluations. The nelfinavir terminal half-life (t½) in plasma is typically 3.5 to 5 hours. […] Subjects participated on an outpatient basis; however, subjects were admitted to the in-patient facility the evening prior to each PK evaluation and remained in the in-patient facility for approximately 16 hours post-dosing. The subjects returned the next morning (8 hours later) for their last 24 hr. pharmacokinetic blood draw. All pharmacokinetic evaluations were performed in the in-patient facility. Blood samples were collected and analyzed for plasma concentrations of nelfinavir and M8. For the fasting evaluation, subjects were required to complete an overnight fast of at least 10 hours prior to dosing in the morning. For the fed PK evaluations, subjects were required to complete an overnight fast of at least 10 hours, prior to receiving the protocol-specific standardized breakfast meal. Subjects were given 30 minutes to complete their standardized breakfast meal. Dosing was performed in the morning, immediately following the subject's completion of the standardized breakfast meal and after the subject's predose PK specimen had been collected. Subjects could not ingest water 1 hour prior to or 1 hour after dosing. A standardized lunch was given at least 4 hours after the morning dose and a standardized dinner was given at least 10 hours after the morning dose. Actual sampling times were used for all data evaluation. Mean Cmax and AUC values were calculated as the antilogs of least-squares mean log-transformed values (analogous to geometric means). Ratios and confidence intervals for Cmax and AUC values are also based on log-transformed values. Mean values for all other pharmacokinetic parameters are least-squares means. Ratios and confidence intervals for these parameters are based on untransformed values. Blood samples, 5 mL each, were collected as in Example 1. The timing of each sample collection was as follows: Predose and at 0.5, 1, 2, 3, 4, 6, 8, 12, 16 and 24 hours postdose on Days 1, 8, and 15. All blood samples were kept at […] (using either wet ice or cryoblock) until centrifugation. Blood samples were centrifuged within 1 hour of collection, at 3000 rpm (approximately 2619×g) for 15 minutes, to separate the plasma. The plasma samples were split evenly into 2 aliquots and stored in appropriately labeled polypropylene transport tubes. Plasma was stored frozen at […] or lower until analysis. Pharmacokinetic parameter values were calculated from plasma nelfinavir and M8 concentration-time data using standard noncompartmental pharmacokinetic methods as in Example 1. Plasma concentrations of nelfinavir and M8 were measured by validated high-performance liquid chromatography (HPLC) methods. […]

[3] = with increasing food intake; cited from earlier work
[4] = M8 after 1250-mg nelfinavir oral dose, fasting (reference)
[5] = M8 after 1250-mg nelfinavir with high calorie/high fat/high protein meal
[6] = M8 after 1250-mg nelfinavir with low calorie/low fat/low protein meal
[7] = M8 after 1250-mg nelfinavir with moderate calorie/low fat/moderate protein meal
[8] = high calorie/high fat/high protein meal vs fasting
[9] = low calorie/low fat/low protein meal vs fasting
[10] = moderate calorie/low fat/moderate protein meal vs fasting

## Cc1c(O)cccc1C(=O)N[C@@H](CSc1ccccc1)[C@H](O)CN1C[C@H]2CCCC[C@H]2C[C@H]1C(=O)NC(C)(C)CO [M8]
[1]; 1250 mg nelfinavir single oral dose, fasting
  M8 AUCinf/NFV AUCinf (%): 26.5%
[1]; high calorie meal (1000 Kcal)
  bioavailability of M8 higher relative to fasting, based on AUC(0-∞): 4.1 fold
[1]; low calorie meal (125 Kcal)
  bioavailability of M8 higher relative to fasting, based on AUC(0-∞): 1.3 fold
[1]; moderate calorie meal (500 Kcal)
  bioavailability of M8 higher relative to fasting, based on AUC(0-∞): 1.8 fold
[1]; [4]
  M8 AUC(0-tlqc), least-squares mean: 0.655^a μg · hr/mL
  M8 AUC(0-∞), least-squares mean: 2.81^c μg · hr/mL
  M8 t1/2, least-squares mean: 2.68^c hr
  M8 tmax, least-squares mean: 3.45^b hr
[1]; [5]
  M8 AUC(0-tlqc), least-squares mean: 7.58^g μg · hr/mL
  M8 AUC(0-∞), least-squares mean: 11.5^a μg · hr/mL
  M8 Cmax, least-squares mean: 1.28^g μg/mL
  M8 t1/2, least-squares mean: 3.90^a hr
  M8 tmax, least-squares mean: 5.01^a hr
[1]; [6]
  M8 AUC(0-tlqc), least-squares mean: 2.01^d μg · hr/mL
  M8 AUC(0-∞), least-squares mean: 3.66^f μg · hr/mL
  M8 Cmax, least-squares mean: 0.533^d μg/mL
  M8 t1/2, least-squares mean: 2.40^f hr
  M8 tmax, least-squares mean: 3.88^e hr
[1]; [7]
  M8 AUC(0-tlqc), least-squares mean: 3.46^a μg · hr/mL
  M8 AUC(0-∞), least-squares mean: 5.11^e μg · hr/mL
  M8 Cmax, least-squares mean: 0.693^a μg/mL
  M8 t1/2, least-squares mean: 2.96^e hr
  M8 tmax, least-squares mean: 4.49^a hr
[1]; M8 in plasma after 1250-mg nelfinavir oral dose, fasting (reference)
  M8 Cmax, least-squares mean: 0.228^a μg/mL
[1]; fed state
  M8 AUC/nelfinavir AUC: 15-21%
[1]; food intake 125 kcal/20% fat
  M8 AUCinf/NFV AUCinf (%): 15.8%
[1]; food intake 500 kcal/20% fat
  M8 AUCinf/NFV AUCinf (%): 15.3%
[1]; food intake 1000 kcal/50% fat
  M8 AUCinf/NFV AUCinf (%): 20.8%
[1]; [8]
  M8 AUC(0-tlqc) ratio (100% × test/reference): 1157%
  M8 AUC(0-∞) ratio (100% × test/reference): 408%
  M8 Cmax ratio (100% × test/reference): 562%
  M8 t1/2 ratio (100% × test/reference): 145%
  M8 tmax ratio (100% × test/reference): 145%
[1]; [9]
  M8 AUC(0-tlqc) ratio (100% × test/reference): 343%
  M8 AUC(0-∞) ratio (100% × test/reference): 130%
  M8 Cmax ratio (100% × test/reference): 234%
  M8 t1/2 ratio (100% × test/reference): 89.4%
  M8 tmax ratio (100% × test/reference): 113%
[1]; [10]
  M8 AUC(0-tlqc) ratio (100% × test/reference): 529%
  M8 AUC(0-∞) ratio (100% × test/reference): 182%
  M8 Cmax ratio (100% × test/reference): 304%
  M8 t1/2 ratio (100% × test/reference): 110%
  M8 tmax ratio (100% × test/reference): 130%
[2]; 1250 mg nelfinavir single dose, fasting
  M8 AUC∞/Nelfinavir AUC∞(%): 8.6%
[2]; Kcal/Fat % 500/20%
  M8 AUC∞/Nelfinavir AUC∞(%): 8.7%
[2]; Kcal/Fat % 500/50%
  M8 AUC∞/Nelfinavir AUC∞(%): 11.4%
[2]; test meal containing 20% fat
  mean M8 AUC(0-∞) higher relative to fasting subjects: 3 fold
[2]; test meal containing 50% fat
  mean M8 AUC(0-∞) higher relative to fasting subjects: 6.8 fold
[2]; remained the same with increasing fat intake
  percentage of M8 relative to nelfinavir: around 10%
[3]
  M8 concentrations relative to nelfinavir: 15-20%
